Values quoted from earlier work, collected in patent US11480580B2, “Methods and reagents to label bacteria and virus and identify their interacting proteins” (priority 2019, dated 2022).

System: ZIKV
Conditions: prior studies

Q: With CN(C)CCCN1c2ccccc2Sc2ccc(Cl)cc21 [chlorpromazine] as the compound, how does the ZIKV infection read?
A: blocked
